Source: US9108944B2, “Androgen receptor modulators and uses thereof” (ARAGON PHARMACEUTICALS, INC., priority 2010, dated 2015)

Assays:
AR-VP16 [1] = molecular target: T1, AR-VP16 (Homo sapiens, UniProt P10275); assay: AR-VP16 DNA Binding Assay, agonist mode (HepG2 cells); type: cell-based; conditions: Emax >20x DMSO control = agonist
T1 sequence (P10275 560-920 limits assumed): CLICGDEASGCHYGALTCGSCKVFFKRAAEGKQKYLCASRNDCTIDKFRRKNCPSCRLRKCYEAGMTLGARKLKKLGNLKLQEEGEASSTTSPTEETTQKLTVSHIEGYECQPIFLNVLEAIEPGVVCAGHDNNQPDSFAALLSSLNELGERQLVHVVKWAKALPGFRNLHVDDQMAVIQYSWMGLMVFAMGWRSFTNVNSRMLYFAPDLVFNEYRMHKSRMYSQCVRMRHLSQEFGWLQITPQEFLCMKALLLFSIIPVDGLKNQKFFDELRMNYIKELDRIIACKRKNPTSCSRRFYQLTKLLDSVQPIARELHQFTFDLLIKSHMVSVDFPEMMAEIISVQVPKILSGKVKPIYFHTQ

AR-VP16 [2] = molecular target: T1, AR-VP16; assay: AR-VP16 DNA Binding Assay, antagonist mode (HepG2 cells, 0.1 nM R1881); type: cell-based
Method in brief: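 Transfected HepG2 cells expressing AR-VP16 received serially diluted compound in charcoal-stripped-serum RPMI the day after transfection, with 0.1 nM R1881 (final) added only for antagonist testing. After 48 h, cells were lysed for measurement.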

Structure (SMILES)	ARVP16 DNA Binding Assay (Agonist mode): Agonist? (AR-VP16 [1])	IC50 (AR-VP16 [2]) [nM]
N#Cc1ncc(N2C(=O)C3(CCC3)N(c3ccc(F)c(C(=O)NCCc4ccncc4)c3)C2=S)cc1C(F)(F)F [Compound 241, 5-(7-(6-Cyano-5-(trifluoromethyl)pyridin-3-yl)-8-oxo-6-thioxo-5,7-diazaspiro[3.4]octan-5-yl)-2-fluoro-N-(2-(pyridin-4-yl)ethyl)benzamide]	No (Agonist defined as a compound whose Emax in the ARVP16 DNA Binding Assay (Agonist mode) is >20x DMSO control)	> 1000
Cc1cc(N2C(=O)C3(CCC3)N(c3ccc(C(=O)NCc4cccs4)c(F)c3)C2=S)cnc1C#N [Compound 274, 4-(7-(6-Cyano-5-methylpyridin-3-yl)-8-oxo-6-thioxo-5,7-diazaspiro[3.4]octan-5-yl)-2-fluoro-N-(thiophen-2-ylmethyl)benzamide]	No (Agonist defined as a compound whose Emax in the ARVP16 DNA Binding Assay (Agonist mode) is >20x DMSO control)	< 1000
N#Cc1ncc(N2C(=O)C3(CCC3)N(c3cccc(OC(F)(F)F)c3)C2=S)cc1C(F)(F)F [Compound 45, 5-(8-Oxo-6-thioxo-5-(3-(trifluoromethoxy)phenyl)-5,7-diazaspiro[3.4]octan-7-yl)-3-(trifluoromethyl)picolinonitrile]	No (Agonist defined as a compound whose Emax in the ARVP16 DNA Binding Assay (Agonist mode) is >20x DMSO control)	< 1000
CCOC(=O)c1cc(N2C(=S)N(c3cnc(C#N)c(C(F)(F)F)c3)C(=O)C23CCC3)ccc1F [Compound 8, Ethyl 5-(7-(6-cyano-5-(trifluoromethyl)pyridin-3-yl)-8-oxo-6-thioxo-5,7-diazaspiro[3.4]octan-5-yl)-2-fluorobenzoate]	No (Agonist defined as a compound whose Emax in the ARVP16 DNA Binding Assay (Agonist mode) is >20x DMSO control)	> 1000
CN1CCC(Oc2ccc(N3C(=S)N(c4cnc(C#N)c(C(F)(F)F)c4)C(=O)C34CCC4)c(F)c2)CC1 [Compound 190, 5-(5-(2-Fluoro-4-((1-methylpiperidin-4-yl)oxy)phenyl)-8-oxo-6-thioxo-5,7-diazaspiro[3.4]octan-7-yl)-3-(trifluoromethyl)picolinonitrile]	No (Agonist defined as a compound whose Emax in the ARVP16 DNA Binding Assay (Agonist mode) is >20x DMSO control)	< 1000
CCCCNC(=O)c1ccc(N2C(=S)N(c3cnc(C#N)c(C(F)(F)F)c3)C(=O)C23CCC3)cc1F [Compound 277, N-Butyl-4-(7-(6-cyano-5-(trifluoromethyl)pyridin-3-yl)-8-oxo-6-thioxo-5,7-diazaspiro[3.4]octan-5-yl)-2-fluorobenzamide]	No (Agonist defined as a compound whose Emax in the ARVP16 DNA Binding Assay (Agonist mode) is >20x DMSO control)	< 1000
COc1cc(N2C(=S)N(c3cnc(C#N)c(C(F)(F)F)c3)C(=O)C23CCC3)ccc1F [Compound 32, 5-(5-(4-fluoro-3-methoxyphenyl)-8-oxo-6-thioxo-5,7-diazaspiro[3.4]octan-7-yl)-3-(trifluoromethyl)picolinonitrile]	No (Agonist defined as a compound whose Emax in the ARVP16 DNA Binding Assay (Agonist mode) is >20x DMSO control)	< 1000
N#Cc1ncc(N2C(=O)C3(CCC3)N(c3ccc(C(=O)N4CCOCC4)c(F)c3)C2=S)cc1C(F)(F)F [Compound 271, 5-(5-(3-Fluoro-4-(morpholine-4-carbonyl)phenyl)-8-oxo-6-thioxo-5,7-diazaspiro[3.4]octan-7-yl)-3-(trifluoromethyl)picolinonitrile]	No (Agonist defined as a compound whose Emax in the ARVP16 DNA Binding Assay (Agonist mode) is >20x DMSO control)	> 1000
Cc1cc(N2C(=O)C3(CCC3)N(c3ccc(OC4CCNCC4)cc3)C2=S)cnc1C#N [Compound 210, 3-Methyl-5-(8-oxo-5-(4-(piperidin-4-yloxy)phenyl)-6-thioxo-5,7-diazaspiro[3.4]octan-7-yl)picolinonitrile]	No (Agonist defined as a compound whose Emax in the ARVP16 DNA Binding Assay (Agonist mode) is >20x DMSO control)	> 1000
Cc1cc(N2C(=O)C3(CCC3)N(c3ccc(-c4cccnc4C)cc3)C2=S)cnc1C#N [Compound 99, 3-Methyl-5-(5-(4-(2-methylpyridin-3-yl)phenyl)-8-oxo-6-thioxo-5,7-diazaspiro[3.4]octan-7-yl)picolinonitrile]	Yes (Agonist defined as a compound whose Emax in the ARVP16 DNA Binding Assay (Agonist mode) is >20x DMSO control)	< 1000
N#Cc1ncc(N2C(=O)C3(CCC3)N(c3ccc(F)c(O)c3)C2=S)cc1C(F)(F)F [Compound 123, 5-(5-(4-Fluoro-3-hydroxyphenyl)-8-oxo-6-thioxo-5,7-diazaspiro[3.4]octan-7-yl)-3-(trifluoromethyl)picolinonitrile]	No (Agonist defined as a compound whose Emax in the ARVP16 DNA Binding Assay (Agonist mode) is >20x DMSO control)	> 1000
N#Cc1ncc(N2C(=O)C3(CCC3)N(c3ccc(OCCCCOCc4ccccc4)c(F)c3)C2=S)cc1C(F)(F)F [Compound 136, 5-(5-(4-(4-(Benzyloxy)butoxy)-3-fluorophenyl)-8-oxo-6-thioxo-5,7-diazaspiro[3.4]octan-7-yl)-3-(trifluoromethyl)picolinonitrile]	No (Agonist defined as a compound whose Emax in the ARVP16 DNA Binding Assay (Agonist mode) is >20x DMSO control)	< 1000
Cc1cc(N2C(=O)C3(CCC3)N(c3ccc(C(=O)Nc4ccccc4)c(F)c3)C2=S)cnc1C#N [Compound 272, 4-(7-(6-Cyano-5-methylpyridin-3-yl)-8-oxo-6-thioxo-5,7-diazaspiro[3.4]octan-5-yl)-2-fluoro-N-phenylbenzamide]	No (Agonist defined as a compound whose Emax in the ARVP16 DNA Binding Assay (Agonist mode) is >20x DMSO control)	< 1000
N#Cc1ncc(N2C(=O)C3(CCC3)N(c3ccc(S(=O)(=O)CCc4ccncc4)cc3)C2=S)cc1C(F)(F)F [Compound 91, 5-(8-Oxo-5-(4-((2-(pyridin-4-yl)ethyl)sulfonyl)phenyl)-6-thioxo-5,7-diazaspiro[3.4]octan-7-yl)-3-(trifluoromethyl)picolinonitrile]	No (Agonist defined as a compound whose Emax in the ARVP16 DNA Binding Assay (Agonist mode) is >20x DMSO control)	> 1000
CNC(=O)c1ccc(N2C(=S)N(c3cnc(C#N)c(C)c3)C(=O)C23CCC3)cc1F [Compound 5, 4-(7-(6-Cyano-5-methylpyridin-3-yl)-8-oxo-6-thioxo-5,7-diazaspiro[3.4]octan-5-yl)-2-fluoro-N-methylbenzamide]	No (Agonist defined as a compound whose Emax in the ARVP16 DNA Binding Assay (Agonist mode) is >20x DMSO control)	< 1000
N#Cc1ncc(N2C(=O)C3(CCC3)N(c3ccc(OC(F)(F)F)cc3)C2=S)cc1C(F)(F)F [Compound 44, 5-(8-Oxo-6-thioxo-5-(4-(trifluoromethoxy)phenyl)-5,7-diazaspiro[3.4]octan-7-yl)-3-(trifluoromethyl)picolinonitrile]	No (Agonist defined as a compound whose Emax in the ARVP16 DNA Binding Assay (Agonist mode) is >20x DMSO control)	< 1000
NC(=O)c1ncc(N2C(=O)C3(CCC3)N(c3ccc(F)c(C(=O)O)c3)C2=S)cc1C(F)(F)F [Compound 229, 5-(7-(6-Carbamoyl-5-(trifluoromethyl)pyridin-3-yl)-8-oxo-6-thioxo-5,7-diazaspiro[3.4]octan-5-yl)-2-fluorobenzoic acid]	No (Agonist defined as a compound whose Emax in the ARVP16 DNA Binding Assay (Agonist mode) is >20x DMSO control)	< 1000
N#Cc1ncc(N2C(=O)C3(CCC3)N(c3ccc(C(=O)Nc4ccncc4)c(F)c3)C2=S)cc1C(F)(F)F [Compound 263, 4-(7-(6-Cyano-5-(trifluoromethyl)pyridin-3-yl)-8-oxo-6-thioxo-5,7-diazaspiro[3.4]octan-5-yl)-2-fluoro-N-(pyridin-4-yl)benzamide]	Yes (Agonist defined as a compound whose Emax in the ARVP16 DNA Binding Assay (Agonist mode) is >20x DMSO control)	< 1000
Cc1cc(N2C(=O)C3(CCC3)N(c3ccc(OC4CCN(C)CC4)cc3)C2=S)cnc1C#N [Compound 191, 3-Methyl-5-(5-(4-((1-methylpiperidin-4-yl)oxy)phenyl)-8-oxo-6-thioxo-5,7-diazaspiro[3.4]octan-7-yl)picolinonitrile]	No (Agonist defined as a compound whose Emax in the ARVP16 DNA Binding Assay (Agonist mode) is >20x DMSO control)	> 1000
CN1CCC(NC(=O)c2ccc(N3C(=S)N(c4cnc(C#N)c(C(F)(F)F)c4)C(=O)C34CCC4)cc2F)CC1 [Compound 276, 4-(7-(6-Cyano-5-(trifluoromethyl)pyridin-3-yl)-8-oxo-6-thioxo-5,7-diazaspiro[3.4]octan-5-yl)-2-fluoro-N-(1-methylpiperidin-4-yl)benzamide]	No (Agonist defined as a compound whose Emax in the ARVP16 DNA Binding Assay (Agonist mode) is >20x DMSO control)	> 1000
